According to patent US9278925B2, “Substituted 3-(biphenyl-3-yl)-4-hydroxy-8-methoxy-1-azaspiro[4.5]dec-3-en-2-one” (BAYER INTELLECTUAL PROPERTY GMBH, priority 2011, dated 2016):
Like-named read-outs stand apart in the source and are kept apart here.

Columns and labels:
[1] = tested on: PC3; assay: Tumour cell proliferation, CellTiter-Glo, 96 h; type: cell-based; conditions: 96-hour incubation
Experimental: (§1) In accordance with the invention, the substances were tested in cell-based assays for the ability of the substances of inhibiting tumour cell proliferation after a 96-hour incubation with the substance. Cell viability was tested using the CellTiter-Glo® luminescent cell viability assay (Promega). The cells were sown at a density of 2000-5000 cells/well (depending on the cell line) in 100 μl growth medium on 96-well microtitre plates. For each cell line examined, cells were sown on a separate plate to determine the luminescence at t=0 hours and t=96 hours. After overnight incubation at 37° C., the luminescence values for the t=0 samples were determined. The dose plates for the t=96 hours points in time were treated with substances diluted with growth medium. The cells were then incubated at 37° C. for 96 hours, and the luminescence values for the t=96 hours samples were then determined. For data analysis, the t=0 values were subtracted from the t=96 hours values for treated and untreated samples. The differences in luminescence in percent between substance-treated samples and control values were used to determine the growth inhibition in percent.
(§2) The substances were tested in the following cell lines which represent the stated indications in an exemplary manner: […]

[2] = tested on: KM12; assay: Tumour cell proliferation, CellTiter-Glo, 96 h; type: cell-based; conditions: 96-hour incubation
Experimental: as §1, §2

[3] = tested on: H460; assay: Tumour cell proliferation, CellTiter-Glo, 96 h; type: cell-based; conditions: 96-hour incubation
Experimental: as §1, §2

[4] = tested on: MCF7; assay: Tumour cell proliferation, CellTiter-Glo, 96 h; type: cell-based; conditions: 96-hour incubation
Experimental: as §1, §2

[5] = Plasma protein binding by equilibrium dialysis; type: in vitro ADME
Experimental: The binding of test substances to plasma proteins is determined by equilibrium dialysis by means of the Ht-dialysis apparatus (96-well) made of Teflon and a semipermeable membrane (regenerated cellulose, MWCO 12-14K). This separates 150 μl each of a plasma side and a buffer side (50 mM phosphate buffer). The test substance is added in 2 concentrations (usually 3 and 0.3 μM) to the plasma side and binds to plasma proteins. The unbound fraction of the test substance passes through the membrane and is distributed on either side until equilibrium is established (after approx. 6-8 h at 37° C.). The substance concentration on the buffer side and the plasma side is determined by LC-MS analysis. For this, both sides are brought by dilution with buffer or plasma to the same matrix (10% plasma) and then precipitated with methanol. The free (unbound) fraction (fu) is calculated from the quotient of the buffer and plasma concentration. Stability tests and recovery tests are run concurrently as controls. In addition, the substance in buffer is dialysed against buffer, to check the nonspecific binding to apparatus and membrane and establishment of equilibrium. Because during incubation the osmotic pressure of the plasma proteins leads to dilution of the plasma (volume shift), this possible error is determined by weighing blank plasma samples and is included in the calculation of fu. Establishment of equilibrium and plasma stability should have a value not lower than 80% and the recovery should be at least 30%. A free fraction of <1% is regarded as high, between 1 and 10% as moderate and >10% as low plasma protein binding.

[6] = Pharmacokinetic parameters in the rat (i.v. and intragastric); type: in vivo; conditions: for clearance / Vd / half-life: male, plasma; for clearance: read-out: CLplasma (converted); for Vd: read-out: Vss; for half-life / t½: terminal; for half-life: read-out: t½ (converted); for F: oral bioavailability
Experimental: Determination of the Pharmacokinetic Parameters of a Test Substance in the Rat and in the Dog For this, the test substances were applied in dissolved form both for intravenous, and for intragastric application, wherein compatible solubilizers such as PEG400 and/or ethanol were used in a compatible amount. […] Administration was as a bolus injection in the male rat and as an infusion in the female dog (15 min) At various time points after the bolus injection, and before and after the 15-minute infusion, blood samples of about 100-150 μl were removed via a catheter either from the jugular vein (rat) or from the saphenous vein (dog). Lithium-heparin was added as anticoagulant to the blood samples and they were stored in a refrigerator until required for further processing. After centrifugation of the samples for 15 min at 3000 rpm, an aliquot of 100 μl was taken from the supernatant (plasma) and was precipitated by adding 400 μl of cold ACN or methanol (absolute). The precipitated samples were frozen-out at […] overnight, then centrifuged again at 3000 rpm for 15 min, before 150 μl of the clear supernatant were removed to determine the concentration. The analysis was effected by means of an Agilent 1200 HPLC system with connected LCMS/MS detection. Calculation of the PK parameters (using PK calculation software, e.g. WinNonLin®): CLplasma: total plasma clearance of the test substance (in 1*kg/h); CLblood: total blood clearance of the test substance (in 1*kg/h), where (CLblood=CLplasma*Cp/Cb); Vss: apparent steady-state distribution volume (in 1/kg); t½: half-life within a specified interval (here: terminal t½, in h); AUCnorm: area under the plasma concentration time profile from time point zero extrapolated to infinity divided by the dose normalized for body weight (in kg*l/h); AUC(0-tn)norm: integrated area under the plasma concentration time profile from time point zero until the last time point at which a plasma concentration was measurable, divided by the dose normalized for body weight (in kg*l/h); Cmax: maximum concentration of the test substance in the plasma (in μg/l); Cmax,norm: maximum concentration of the test substance in the plasma divided by the dose normalized for body weight (in kg/l); Cb/Cp: ratio of the blood to plasma concentration distribution. […] At various time points after administration, blood samples of about 100-150 μl were removed via a catheter either from the jugular vein (rat) or from the saphenous vein (dog). Lithium-heparin was added as anticoagulant to the blood samples and they were stored in a refrigerator until required for further processing. After centrifugation of the samples for 15 min at 3000 rpm, an aliquot of 100 μl was taken from the supernatant (plasma) and was precipitated by adding 400 μl of cold ACN or methanol (absolute). The precipitated samples were frozen-out at −20° C. overnight, then centrifuged at 3000 rpm for 15 min, before 150 μl of the clear supernatant were removed to determine the concentration. The analysis was effected by means of an Agilent 1200 HPLC system with connected LCMS/MS detection. […]

[7] = human plasma, read-out: fu [%] (human)
[8] = mouse plasma, read-out: fu [%] (mouse)
[9] = rat plasma, read-out: fu [%] (rat)

SMILES	IC50 ([1]; Homo sapiens, PC-3) [nM]	IC50 ([2]; Homo sapiens, KM12) [nM]	IC50 ([3]; Homo sapiens, NCI-H460) [nM]	IC50 ([4]; Homo sapiens, MCF7) [nM]	fraction unbound [5, 7]	fraction unbound [5, 8]	CLblood [6] [mL/min/kg]	clearance ([6]; intravenous) [mL/min/kg]	Vd ([6]; intravenous) [L/kg]	half-life [6] [h]	F [6] [%]	fraction unbound [5, 9]	further results
CO[C@]1(C(F)(F)F)CC[C@]2(CC1)NC(=O)C(c1cc(-c3ccc(Cl)cc3)ccc1C)=C2O [Example 1-1, (5r,8r)-3-(4′-Chloro-4-methylbiphenyl-3-yl)-4-hydroxy-8-methoxy-8-(trifluoromethyl)-1-azaspiro[4.5]dec-3-en-2-one]	29	21	88	26	0.002	0.0082	0.183	0.1	0.85	103	163		
CO[C@]1(C(F)(F)F)CC[C@]2(CC1)NC(=O)C(c1cc(-c3ccc(Cl)c(F)c3)ccc1C)=C2O [Example 1-2, (5r,8r)-3-(4′-Chloro-3′-fluoro-4-methylbiphenyl-3-yl)-4-hydroxy-8-methoxy-8-(trifluoromethyl)-1-azaspiro[4.5]dec-3-en-2-one]	22	14	104	< 14	0.0026	0.014	0.65	0.483	2.4	65	131		
COC[C@]1(OC)CC[C@@]2(CC1)NC(=O)C(c1cc(-c3ccc(Cl)cc3)ccc1C)=C2O [Example 1-3, (5r,8r)-3-(4′-Chloro-4-methylbiphenyl-3-yl)-4-hydroxy-8-methoxy-8-(methoxymethyl)-1-azaspiro[4.5]dec-3-en-2-one]	194	222	365	45	0.0041	0.038	0.083			79	68		clearance ([6]; iv): 0.0333 mL/min/kg; Vd ([6]; iv): 0.29 L/kg
COC[C@]1(OC)CC[C@@]2(CC1)NC(=O)C(c1cc(-c3ccc(Cl)c(F)c3)ccc1C)=C2O [Example 1-4, (5r,8r)-3-(4′-Chloro-3′-fluoro-4-methylbiphenyl-3-yl)-4-hydroxy-8-methoxy-8-(methoxymethyl)-1-azaspiro[4.5]dec-3-en-2-one]	120	96	333	48	0.0037	0.0217	0.183	0.117	0.44	51	83	0.0021	
CO[C@]1(C)CC[C@]2(CC1)NC(=O)C(c1cc(-c3ccc(Cl)cc3)ccc1C)=C2O [Example V.1-a, (5r,8r)-3-(4′-Chloro-4-methylbiphenyl-3-yl)-4-hydroxy-8-methoxy-8-methyl-1-azaspiro[4.5]dec-3-en-2-one]											83		IC50 [1]: 35 nM; IC50 [2]: 38 nM; IC50 [3]: 79 nM; IC50 [4]: 23 nM; fu [%] (human) [5]: 0.38%; fu [%] (rat) [5]: 0.23%; fu [%] (mouse) ([5]; mouse plasma): 2.49%; CLplasma [6]: 0.15 mL/min/kg; Vss [6]: 0.3 L/kg; t½ [6]: 28 h
CO[C@]1(C)CC[C@]2(CC1)NC(=O)C(c1cc(-c3ccc(Cl)c(F)c3)ccc1C)=C2O [Example V.2-a, (5r,8r)-3-(4′-Chloro-3′-fluoro-4-methylbiphenyl-3-yl)-4-hydroxy-8-methoxy-8-methyl-1-azaspiro[4.5]dec-3-en-2-one]											71		IC50 [1]: 46 nM; IC50 [2]: 73 nM; IC50 [3]: 82 nM; IC50 [4]: 32 nM; fu [%] (human) [5]: 0.39%; fu [%] (rat) [5]: 0.23%; fu [%] (mouse) ([5]; mouse plasma): 2.8%; CLplasma [6]: 0.217 mL/min/kg; Vss [6]: 0.51 L/kg; t½ [6]: 33 h
Cc1ccc(-c2ccc(Cl)cc2)cc1C1=C(O)[C@]2(CC[C@](O)(C(F)(F)F)CC2)NC1=O [V.1-c, (5r,8r)-3-(4′-Chloro-4-methylbiphenyl-3-yl)-4,8-dihydroxy-8-(trifluoromethyl)-1-azaspiro[4.5]dec-3-en-2-one]	275	827	1870										
Cc1ccc(-c2ccc(Cl)c(F)c2)cc1C1=C(O)[C@]2(CC[C@](O)(C(F)(F)F)CC2)NC1=O [V.2-c, (5r,8r)-3-(4′-Chloro-3′-fluoro-4-methylbiphenyl-3-yl)-4,8-dihydroxy-8-(trifluoromethyl)-1-azaspiro[4.5]dec-3-en-2-one]	767	2370	2120										
COC[C@H]1CC[C@]2(CC1)NC(=O)C(c1cc(-c3ccc(Cl)cc3)ccc1C)=C2O [V.3-b, (5s,8s)-3-(4′-Chloro-4-methylbiphenyl-3-yl)-4-hydroxy-8-(methoxymethyl)-1-azaspiro[4.5]dec-3-en-2-one]	36	31	67	23	0.0036	0.109						0.0779	
COC[C@H]1CC[C@]2(CC1)NC(=O)C(c1cc(-c3ccc(Cl)c(F)c3)ccc1C)=C2O [V.4-b, (5s,8s)-3-(4′-Chloro-3′-fluoro-4-methylbiphenyl-3-yl)-4-hydroxy-8-(methoxymethyl)-1-azaspiro[4.5]dec-3-en-2-one]	30	35	43	20	0.0141	0.0176						0.0011	fu ratio mouse/human ([5]; mouse and human, plasma, Table 5): 1
